{"source": "patent US11366101B1", "about": "“Ex vivo systems and methods for determining the effect of a drug or other agent on a tissue” (Elephas Biosciences Corporation, priority 2020, dated 2022)", "key": {"[1]": {"tested_on": "human live tumor fragments", "assay": "Supernatant cytokines of live tumor fragments by LEGENDPlex bead immunoassay, human", "format": "cell-based", "details": "cultured 48 or 72 h; for presence of IFN-γ and cytokines associated with immune activation relative to the untreated control: human samples", "description": "(§1) Human tumor excisions were obtained from the University of Wisconsin (Institutional Review Board (IRB) approved) and CT26 tumors were grown in mice. Tumor excisions were cut into […] live tumor fragments of 100-300 μm thickness, sorted into multi-well plates, and cultured for 48 or 72 h in the presence or absence of anti-PD1 (nivolumab or mouse equivalent), anti-PD1 plus anti-CTLA4 (ipilimumab or mouse equivalent), or concanavalin A (ConA) as a positive control. Cell viability was ascertained by ATP luminescence assay or flow cytometry (not shown). Supernatant cytokines were measured using LEGENDPlex bead immunoassay. […] The presence of cytokines was greater in wells with 10 fragments than in wells with 3 fragments, indicating suitability of culture conditions."}, "CT26 tumor fragments": {"tested_on": "CT26 tumor fragments", "assay": "Supernatant cytokines of live tumor fragments by LEGENDPlex bead immunoassay, mouse", "format": "cell-based", "details": "mouse specimens, cultured 48 or 72 h", "description": "as §1"}, "EMT6 tumor fragments [2]": {"tested_on": "EMT6 tumor fragments", "assay": "Label-free MP-FLIM of NAD(P)H fluorescence lifetime in cultured tumor fragments", "format": "cell-based, mouse", "details": "24 hours of exposure vs 0 h, p<0.002", "description": "Live EMT6 tumors were cut into tissue fragments that were then sorted and cultured in glass-bottomed multi-well plates. To induce cancer cell death, one group was treated with the multi-kinase inhibitor, staurosporine (STS), and the control group was treated with the vehicle (Veh). Before (0 h) and after treatment (24 h), the structure and metabolic status of tumor fragments were imaged based on the intrinsically fluorescent metabolic co-factor nicotinamide dinucleotides (NAD(P)H) fluorescence intensity and lifetime using MP-FLIM by time-correlated single photon counting. The data was analyzed by fitting fluorescence decay curves with dual exponents. […] Each dot represents one fragment."}, "EMT6 tumor fragments [3]": {"tested_on": "EMT6 tumor fragments", "assay": "NAD(P)H intensity multiphoton microscopy versus propidium iodide viability ground truth in cultured tumor fragments", "format": "cell-based, mouse", "details": "after 24 h, treated versus untreated", "description": "Live EMT6 tumors were cut into tissue fragments that were then sorted and cultured in glass-bottomed multi-well plates. To induce cancer cell death, one group was treated with the multi-kinase inhibitor, staurosporine (STS), and the control group was untreated. After 24 h, the structure and metabolic status of tumor fragments were imaged based on the intrinsically fluorescent metabolic co-factor nicotinamide dinucleotides (NAD(P)H) fluorescence intensity using multiphoton microscopy with 720 nm excitation. […] For structural reference, the second harmonic generation was also imaged (blue)."}, "live tumor fragment": {"tested_on": "live tumor fragment", "assay": "Diffusion of a small molecule drug and an antibody into a live tumor fragment (fluorescence imaging)", "format": "in vitro ADME", "details": "live tumor fragment cultured at 37° C., time after addition", "description": "Notable was gradual appearance of doxorubicin-characteristic fluorescence first in the periphery of tissue fragment at 15 minutes followed by full-thickness staining of the entire fragment area at 2 hours. […] Notable is plateau staining within about 5 h. As noted by this experiment, both small molecule drugs and large antibodies diffused into the live tissue fragments."}}}
{"compound": "concanavalin A [ConA]", "values": [{"measurement": "presence of IFN-γ and cytokines associated with immune activation relative to the untreated control", "setting": "[1]", "result": "greater presence of IFN-γ and 16 cytokines"}]}
{"compound": "anti-PD1: immunotherapy drug anti-PD1 (nivolumab or mouse equivalent)", "values": [{"measurement": "cytokine panel upregulation, fold increase relative to untreated control", "setting": "[1]; human LTFs", "result": "cytokine panel upregulation was observed"}, {"measurement": "presence of IFN-γ and cytokines associated with immune activation relative to the untreated control", "setting": "[1]", "result": "greater presence of IFN-γ and 16 cytokines"}, {"measurement": "presence of IFN-γ and cytokines associated with immune activation, fold increase in relation to the untreated control", "setting": "CT26 tumor fragments", "result": "greater presence of IFN-γ and 10 cytokines"}]}
{"compound": "CN[C@@H]1C[C@H]2O[C@@](C)([C@@H]1OC)n1c3ccccc3c3c4c(c5c6ccccc6n2c5c31)C(=O)NC4", "note": "[staurosporine]", "values": [{"measurement": "NAD(P)H short lifetime component (a1)", "setting": "EMT6 tumor fragments [2]", "result": "concomitant decrease"}, {"measurement": "whole fragment NAD(P)H mean lifetime (tm)", "setting": "EMT6 tumor fragments [2]", "result": "statistically significant increase"}, {"measurement": "PI-stained nuclei (dead cells)", "setting": "EMT6 tumor fragments [3]", "result": "increased numbers of PI-stained nuclei"}, {"measurement": "NAD(P)H intensity", "setting": "EMT6 tumor fragments [3]; 720 nm excitation", "result": "loss of NAD(P)H intensity"}]}
{"compound": "COc1cccc2c1C(=O)c1c(O)c3c(c(O)c1C2=O)C[C@@](O)(C(=O)CO)C[C@@H]3O[C@H]1C[C@H](N)[C@H](O)[C@H](C)O1", "note": "[doxorubicin]", "values": [{"measurement": "appearance of doxorubicin-characteristic fluorescence in the periphery of tissue fragment", "setting": "live tumor fragment", "result": 15, "unit": "min"}, {"measurement": "full-thickness staining of the entire fragment area", "setting": "live tumor fragment", "result": 2, "unit": "h"}]}
